The record followed here is article PMC11220606, “Understanding β-strand mediated protein–protein interactions: tuning binding behaviour of intrinsically disordered sequences by backbone modification” (Chemical Science, 2024).

As usually defined, the IC50 is the point on the concentration scale where inhibition reaches its midpoint. Lower therefore signals inhibition by little substance. Usually Kd stands for the free concentration of one partner at which half of the binding sites on the other are occupied at equilibrium, for simple one-to-one binding. Usually koff stands for a measure of how fast the partners let go of each other. What is called kon is the rate constant with which the complex forms.

Bounds are passed on as bounds.

In experiment [1] the target is T1, human SUMO-1_18–97 (SUMO) (Homo sapiens, UniProt P63165). The experiment can be described thus: Fluorescence anisotropy competition assay (FAM-SIM tracer displacement from SUMO). Conditions: for inhibitory potency relative to the parent SIM peptide (in words): fluorescence anisotropy competition assay, backbone N-methyl scan. On the technique in general: Polarisation of emitted light reports the rotation of a fluorescent probe.
T1 sequence (P63165 18-97): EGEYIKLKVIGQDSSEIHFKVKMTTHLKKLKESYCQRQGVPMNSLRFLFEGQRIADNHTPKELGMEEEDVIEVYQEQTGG
Method: Fluorescence competition anisotropy data. The parent SIM peptide and its N-methylated variants were each
peptide (50 nM) in Tris-buffered saline (20 mM Tris, pH 8.0, 150 mM NaCl and 0.03% Triton-X).
Tris, 150 mM NaCl, 0.01 % Triton-X, pH 7.4 using 50 nM FAM PEG-SIM tracer and 3 μM SUMO protein.
Inhibitory potencies for N-methylated SIM peptides to SUMO. IC50 values were determined through competition
FA experiments (20 mm Tris, 150 mM NaCl, 0.03% Triton X, pH 8.0).
Competition binding assays were performed in triplicate within 384-well plates (Greiner Bio-one). Competitor
nM, 3 μM, 50 nM final concentrations of competitor, SUMO and tracer respectively). Control wells lacked
tracer. The plates were kept in the dark for at least 30 min before fluorescence polarisation was measured.
Labtech), with excitation at 482 nm (bandwidth = 16 nM) and emission at 530 nm (bandwidth = 40 nm). For
(bandwidth = 20 nM) and emission at 535 nm (bandwidth = 25 nm).
Perependicular (P) and parallel (S) intensities of the control wells were averaged and deducted from each
= Ssample – Sav. control). The total sample intensities (I) and anisotropies (r) were then calculated as follows:
Fluorescence anisotropy values were plotted against competitor peptide concentrations and fit to a logistic
function of the form Y = A2 + (A1 – A2) / (1 + (x/x0)p) for determination of half-maximal inhibitory concentrations
Note: To ensure a set of self-consistent IC50 values for comparison, experiments were performed using a single
batch of protein given subtle batch dependent variations in active concentration of protein.

The target of experiment [2] is T1, human SUMO-1_18–97 (SUMO). The experiment can be described thus: Relaxation-based NMR binding kinetics (15N ZZ-exchange for tighter binders, CPMG relaxation dispersion for weaker binders). To be noted: for koff / kon: pH 7.4.
From the text: Non-overlapping exchange cross-peaks were evident for a subset of residues when the ^15N magnetizations of the bound and unbound states were mixed following t1 (^15N) evolution (ZZ-exchange spectroscopy). Global fitting of the intensities of auto and cross peaks as a function of mixing time to McConnel equations (Fig. 3c, S8–S11; ESI ^† for methods) gave apparent first-order association k^appon and first-order dissociation koff rates for binding, which were converted to kon and dissociation equilibrium constants (KD).
All NMR spectra acquired using 15N-labelled protein samples were acquired at 5 °C, in 20 mM sodium
phosphate pH 7.4, 150 mM NaCl, 0.02% NaN3, on 750 or 600 MHz Bruker NMR spectrometers.
Protein and peptide NMR spectra were processed with NMRPipe and analysed in CcpNmr analysis.
15N ZZ-exchange spectroscopy
15N ZZ-exchange experiments were performed in an interleaved manner as described previously4 using mixing
times between 10 and 500 ms. Data were fit to a simple 2-state model:
where state A represents unbound SUMO and state B represents SUMO bound to SIM. The time-evolution of
the longitudinal magnetisations during mixing are described by the corresponding McConnel equations:4
𝑧 = 𝑘𝑎𝑝𝑝𝑀𝑏𝑎 ‒ 𝑀𝑏𝑏(𝑘 + 𝑅𝑏)
𝑧 = 𝑘 𝑀𝑏𝑏 ‒ 𝑀𝑏𝑎(𝑘𝑎𝑝𝑝 + 𝑅𝑎)
where is the𝑀𝑎𝑎𝑧 z-magnetization of unbound SUMO, is the𝑀𝑏𝑏𝑧 z-magnetization of bound SUMO, and , 𝑀𝑎𝑏𝑧
𝑧 are the z-magnetizations of the corresponding exchange cross-peaks. are11 the longitudinal relaxation
rates for states A and B, and are𝑜𝑛𝑜𝑓𝑓 the pseudo-first order association and dissociation rates,
respectively. Simple analytical solutions to the above equations are available4 and were used to fit the ZZ-
exchange data. Fitting parameters included , residue𝑜𝑛𝑜𝑓𝑓 specific rates,11 and scaling factors
𝐼𝑎𝑎, 𝐼𝑏𝑏 that incorporate any differences in the relaxation rates of the bound and unbound species. Scaling
factors for the exchange cross-peaks were 𝐼𝑎𝑏, 𝐼𝑏𝑎 not included as these were absent at the start of the mixing
period in all cases. Uncertainties in the fitted parameters were calculated using a Monte-Carlo approach based
on the noise of the experiment. Fitting was performed using in-house scripts written in Python employing the
LmFit module available at https://lmfit.github.io/lmfit-py/.
The target of experiment [3] is T1, human SUMO-1_18–97 (SUMO). The experiment can be described thus: Temperature dependence of NMR-derived exchange parameters (Van't Hoff and Eyring analysis). More on the design: human SUMO-1_18–97 (SUMO); His tag with TEV site (N, cleaved yes); made in house. The class given is binding. Conditions: 25 °C; for TΔS, Association (activation, kon) / TΔS, Dissociation (activation, koff) / ΔG, Association (activation, kon) / ΔG, Dissociation (activation, koff) / ΔH, Association (activation, kon) / ΔH, Dissociation (activation, koff): Eyring fit, ± SD of fitted parameter (Monte-Carlo), SD. The source says:
Eyring plots were obtained for the temperature-dependence of the kon and koff rates (Fig. 5d and e), from which the association/dissociation activation enthalpies (ΔH^‡ass/ΔH^‡diss), activation/dissociation entropies (TΔS^‡ass/TΔS^‡diss), and thus activation/dissociation free energies (ΔG^‡ass/ΔG^‡diss), could be determined.

The target in experiment [4] is T1, human SUMO-1_18–97 (SUMO). The experiment is described as above. In kind it is binding. On the set-up: human SUMO-1_18–97 (SUMO); His tag with TEV site (N, cleaved yes); made in house. Conditions: 25 °C; for TΔS, Binding (KD) / ΔH, Binding (KD): Van't Hoff fit, ± SD of fitted parameter (Monte-Carlo), SD.

`CC[C@H](C)[C@H](NC(=O)[C@H](CCC(=O)O)NC(=O)[C@H](CC(N)=O)N(C)C(=O)[C@H](CC(=O)O)NC(C)=O)C(=O)N[C@@H](CCC(=O)O)C(=O)N[C@H](C(=O)N[C@H](C(=O)N[C@H](C(=O)N[C@H](C(=O)N[C@@H](Cc1c[nH]c2ccccc12)C(=O)N[C@@H](CCC(=O)O)C(=O)N[C@@H](CCCCN)C(=O)N[C@@H](CCCCN)C(N)=O)C(C)C)[C@@H](C)CC)[C@@H](C)CC)C(C)C` [Me-Asn2706]: in experiment [1], the IC50 was 9.4 ± 0.5 µM.
Still for that read-out and setting: to `CC[C@H](C)[C@H](NC(=O)[C@H](CCC(=O)O)NC(=O)[C@H](CC(N)=O)NC(=O)[C@H](CC(=O)O)N(C)C(C)=O)C(=O)N[C@@H](CCC(=O)O)C(=O)N[C@H](C(=O)N[C@H](C(=O)N[C@H](C(=O)N[C@H](C(=O)N[C@@H](Cc1c[nH]c2ccccc12)C(=O)N[C@@H](CCC(=O)O)C(=O)N[C@@H](CCCCN)C(=O)N[C@@H](CCCCN)C(N)=O)C(C)C)[C@@H](C)CC)[C@@H](C)CC)C(C)C` [Me-Asp2705] belongs 12.6 ± 0.5 µM; to `CC[C@H](C)[C@H](NC(=O)[C@@H](NC(=O)[C@H](CCC(=O)O)NC(=O)[C@@H](NC(=O)[C@H](CCC(=O)O)N(C)C(=O)[C@H](CC(N)=O)NC(=O)[C@H](CC(=O)O)NC(C)=O)[C@@H](C)CC)C(C)C)C(=O)N[C@H](C(=O)N[C@H](C(=O)N[C@@H](Cc1c[nH]c2ccccc12)C(=O)N[C@@H](CCC(=O)O)C(=O)N[C@@H](CCCCN)C(=O)N[C@@H](CCCCN)C(N)=O)C(C)C)[C@@H](C)CC` [Me-Glu2707], 12.4 ± 0.8 µM; to `CC[C@H](C)[C@H](NC(=O)[C@@H](NC(=O)[C@H](CCC(=O)O)N(C)C(=O)[C@@H](NC(=O)[C@H](CCC(=O)O)NC(=O)[C@H](CC(N)=O)NC(=O)[C@H](CC(=O)O)NC(C)=O)[C@@H](C)CC)C(C)C)C(=O)N[C@H](C(=O)N[C@H](C(=O)N[C@@H](Cc1c[nH]c2ccccc12)C(=O)N[C@@H](CCC(=O)O)C(=O)N[C@@H](CCCCN)C(=O)N[C@@H](CCCCN)C(N)=O)C(C)C)[C@@H](C)CC` [Me-Glu2709], 31.4 ± 3 µM.
Still for that read-out and setting: to `CC[C@H](C)[C@H](NC(=O)[C@H](CCC(=O)O)NC(=O)[C@H](CC(N)=O)NC(=O)[C@H](CC(=O)O)NC(C)=O)C(=O)N[C@@H](CCC(=O)O)C(=O)N[C@H](C(=O)N[C@H](C(=O)N[C@H](C(=O)N[C@H](C(=O)N[C@@H](Cc1c[nH]c2ccccc12)C(=O)N(C)[C@@H](CCC(=O)O)C(=O)N[C@@H](CCCCN)C(=O)N[C@@H](CCCCN)C(N)=O)C(C)C)[C@@H](C)CC)[C@@H](C)CC)C(C)C` [Me-Glu2715] belongs 27.4 ± 1.9 µM.
`CC[C@H](C)[C@H](NC(=O)[C@@H](NC(=O)[C@H](CCC(=O)O)NC(=O)[C@H]([C@@H](C)CC)N(C)C(=O)[C@H](CCC(=O)O)NC(=O)[C@H](CC(N)=O)NC(=O)[C@H](CC(=O)O)NC(C)=O)C(C)C)C(=O)N[C@H](C(=O)N[C@H](C(=O)N[C@@H](Cc1c[nH]c2ccccc12)C(=O)N[C@@H](CCC(=O)O)C(=O)N[C@@H](CCCCN)C(=O)N[C@@H](CCCCN)C(N)=O)C(C)C)[C@@H](C)CC` [Me-Ile2708]: the IC50 in experiment [1] came to 5.4 ± 0.3 µM. In experiment [2], this compound registered a Kd of 14 ± 0.4 µM, a koff of 4.58 ± 0.04 s⁻¹ and a kon of 327000 ± 9000 M⁻¹ s⁻¹.
For the compound `CC[C@H](C)[C@H](NC(=O)[C@H](CCC(=O)O)NC(=O)[C@H](CC(N)=O)NC(=O)[C@H](CC(=O)O)NC(C)=O)C(=O)N[C@@H](CCC(=O)O)C(=O)N[C@H](C(=O)N(C)[C@H](C(=O)N[C@H](C(=O)N[C@H](C(=O)N[C@@H](Cc1c[nH]c2ccccc12)C(=O)N[C@@H](CCC(=O)O)C(=O)N[C@@H](CCCCN)C(=O)N[C@@H](CCCCN)C(N)=O)C(C)C)[C@@H](C)CC)[C@@H](C)CC)C(C)C` [Me-Ile2711, Ac-DNEIEV(NMe)IIVWEKK-NH2], in experiment [1], the half-maximal inhibitory concentration (IC50) is above 300 µM and the “inhibitory potency relative to the parent SIM peptide (in words)” value is reported as “significantly diminished inhibitory potency”.
In experiment [1], `CC[C@H](C)[C@H](NC(=O)[C@H](CCC(=O)O)NC(=O)[C@H](CC(N)=O)NC(=O)[C@H](CC(=O)O)NC(C)=O)C(=O)N[C@@H](CCC(=O)O)C(=O)N[C@H](C(=O)N[C@H](C(=O)N(C)[C@H](C(=O)N[C@H](C(=O)N[C@@H](Cc1c[nH]c2ccccc12)C(=O)N[C@@H](CCC(=O)O)C(=O)N[C@@H](CCCCN)C(=O)N[C@@H](CCCCN)C(N)=O)C(C)C)[C@@H](C)CC)[C@@H](C)CC)C(C)C` [Me-Ile2712, Ac-DNEIEVI(NMe)IVWEKK-NH2] showed an IC50 of 7.9 ± 1 µM. In experiment [2], this compound showed a Kd of 14.5 ± 0.9 µM, a koff of 5.9 ± 0.08 s⁻¹ and a kon of 410000 ± 28000 M⁻¹ s⁻¹. The “ΔΔG vs. parent (increase in affinity)” value in experiment [2] (from KD values of 15N ZZ-exchange data at 5 °C) is around 0.48 kcal/mol. In experiment [3], the “TΔS‡ass more favourable than parent by” value was “≈ 11 kJ mol^−1”; the “ΔH‡ass more unfavourable than parent by” value is reported as “≈ 8 kJ mol^−1”; the “TΔS, Association (activation, kon)” value amounted to 34.78 ± 0.502 kcal/mol; the “TΔS, Dissociation (activation, koff)” value was -3.51 ± 0.048 kcal/mol. For the same compound, in experiment [3], the “ΔG, Association (activation, kon)” value amounted to 6.57 ± 0.526 kcal/mol; the “ΔG, Dissociation (activation, koff)” value was 15.5 ± 0.096 kcal/mol; the “ΔH, Association (activation, kon)” value was 41.23 ± 0.502 kcal/mol; the “ΔH, Dissociation (activation, koff)” value was 12 ± 0.072 kcal/mol. In experiment [4], the “decrease in ΔGbind relative to parent” value amounted to 0.72 kcal/mol; the “increase in enthalpy (ΔHbind) in comparison to the parent SIM peptide” value was around 2.87 kcal/mol; the “increase in entropy of binding (TΔSbind) in comparison to the parent SIM peptide” value was around 3.59 kcal/mol; the “TΔS, Binding (KD)” value stood at 38.67 ± 0.478 kcal/mol. The “ΔH, Binding (KD)” value in experiment [4] is 29.92 ± 0.048 kcal/mol.
For `CC[C@H](C)[C@H](NC(=O)[C@H](CCC(=O)O)NC(=O)[C@H](CC(N)=O)NC(=O)[C@H](CC(=O)O)NC(C)=O)C(=O)N[C@@H](CCC(=O)O)C(=O)N[C@H](C(=O)N[C@H](C(=O)N[C@H](C(=O)N[C@H](C(=O)N[C@@H](Cc1c[nH]c2ccccc12)C(=O)N[C@@H](CCC(=O)O)C(=O)N(C)[C@@H](CCCCN)C(=O)N[C@@H](CCCCN)C(N)=O)C(C)C)[C@@H](C)CC)[C@@H](C)CC)C(C)C` [Me-Lys2716], the IC50 in experiment [1] is above 100 µM. In experiment [2], the affinity, expressed as Kd, was 510 ± 40 µM; the koff was 553 ± 17 s⁻¹; the kon was 1.09e+06 ± 70000 M⁻¹ s⁻¹. Moreover, in experiment [3], the “TΔS, Association (activation, kon)” value came to 3.11 ± 0.048 kcal/mol; the “TΔS, Dissociation (activation, koff)” value was -9.2 ± 0.024 kcal/mol; the “ΔG, Association (activation, kon)” value is 8.46 ± 0.072 kcal/mol; the “ΔG, Dissociation (activation, koff)” value is 13.5 ± 0.024 kcal/mol. In addition, in experiment [3], the “ΔH, Association (activation, kon)” value stood at 11.6 ± 0.048 kcal/mol and the “ΔH, Dissociation (activation, koff)” value amounted to 4.28 ± 0.024 kcal/mol. Further, in experiment [4], the “TΔS, Binding (KD)” value was found to be 12.5 ± 0.048 kcal/mol and the “ΔH, Binding (KD)” value worked out at 7.5 ± 0.048 kcal/mol.
Consider `CC[C@H](C)[C@H](NC(=O)[C@H](CCC(=O)O)NC(=O)[C@H](CC(N)=O)NC(=O)[C@H](CC(=O)O)NC(C)=O)C(=O)N[C@@H](CCC(=O)O)C(=O)N[C@H](C(=O)N[C@H](C(=O)N[C@H](C(=O)N[C@H](C(=O)N[C@@H](Cc1c[nH]c2ccccc12)C(=O)N[C@@H](CCC(=O)O)C(=O)N[C@@H](CCCCN)C(=O)N(C)[C@@H](CCCCN)C(N)=O)C(C)C)[C@@H](C)CC)[C@@H](C)CC)C(C)C` [Me-Lys2717], for which the IC50 in experiment [1] came to 10 ± 0.4 µM. Further, in experiment [2], the dissociation constant Kd came out at 13.6 ± 0.5 µM, the koff was determined as 8.95 ± 0.12 s⁻¹ and the kon was 657000 ± 27000 M⁻¹ s⁻¹.
Regarding `CC[C@H](C)[C@H](NC(=O)[C@H](CCC(=O)O)NC(=O)[C@H](CC(N)=O)NC(=O)[C@H](CC(=O)O)NC(C)=O)C(=O)N[C@@H](CCC(=O)O)C(=O)N[C@H](C(=O)N[C@H](C(=O)N[C@H](C(=O)N[C@H](C(=O)N(C)[C@@H](Cc1c[nH]c2ccccc12)C(=O)N[C@@H](CCC(=O)O)C(=O)N[C@@H](CCCCN)C(=O)N[C@@H](CCCCN)C(N)=O)C(C)C)[C@@H](C)CC)[C@@H](C)CC)C(C)C` [Me-Trp2714], in experiment [1], the IC50 was above 100 µM and the “inhibitory potency relative to the parent SIM peptide (in words)” value is given as “significantly diminished inhibitory potency”.
`CC[C@H](C)[C@H](NC(=O)[C@H](CCC(=O)O)NC(=O)[C@H](CC(N)=O)NC(=O)[C@H](CC(=O)O)NC(C)=O)C(=O)N[C@@H](CCC(=O)O)C(=O)N(C)[C@H](C(=O)N[C@H](C(=O)N[C@H](C(=O)N[C@H](C(=O)N[C@@H](Cc1c[nH]c2ccccc12)C(=O)N[C@@H](CCC(=O)O)C(=O)N[C@@H](CCCCN)C(=O)N[C@@H](CCCCN)C(N)=O)C(C)C)[C@@H](C)CC)[C@@H](C)CC)C(C)C` [Me-Val2710] had an IC50 in experiment [1] above 100 µM. In experiment [2], this compound showed a Kd of 388 ± 7 µM, a koff of 208 ± 1 s⁻¹ and a kon of 536000 ± 10000 M⁻¹ s⁻¹.
With `CC[C@H](C)[C@H](NC(=O)[C@H](CCC(=O)O)NC(=O)[C@H](CC(N)=O)NC(=O)[C@H](CC(=O)O)NC(C)=O)C(=O)N[C@@H](CCC(=O)O)C(=O)N[C@H](C(=O)N[C@H](C(=O)N[C@H](C(=O)N(C)[C@H](C(=O)N[C@@H](Cc1c[nH]c2ccccc12)C(=O)N[C@@H](CCC(=O)O)C(=O)N[C@@H](CCCCN)C(=O)N[C@@H](CCCCN)C(N)=O)C(C)C)[C@@H](C)CC)[C@@H](C)CC)C(C)C` [Me-Val2713], in experiment [1], the IC50 is above 100 µM and the “inhibitory potency relative to the parent SIM peptide (in words)” value is reported as “significantly diminished inhibitory potency”.
